What follows are compounds tested against human capsaicin receptor (VR1) (Homo sapiens, UniProt Q8NER1) (assay: Capsaicin receptor binding assay ([3H]RTX competition, VR1-transfected HEK293 membranes)).
human capsaicin receptor (VR1), sequence (Q8NER1 whole entry): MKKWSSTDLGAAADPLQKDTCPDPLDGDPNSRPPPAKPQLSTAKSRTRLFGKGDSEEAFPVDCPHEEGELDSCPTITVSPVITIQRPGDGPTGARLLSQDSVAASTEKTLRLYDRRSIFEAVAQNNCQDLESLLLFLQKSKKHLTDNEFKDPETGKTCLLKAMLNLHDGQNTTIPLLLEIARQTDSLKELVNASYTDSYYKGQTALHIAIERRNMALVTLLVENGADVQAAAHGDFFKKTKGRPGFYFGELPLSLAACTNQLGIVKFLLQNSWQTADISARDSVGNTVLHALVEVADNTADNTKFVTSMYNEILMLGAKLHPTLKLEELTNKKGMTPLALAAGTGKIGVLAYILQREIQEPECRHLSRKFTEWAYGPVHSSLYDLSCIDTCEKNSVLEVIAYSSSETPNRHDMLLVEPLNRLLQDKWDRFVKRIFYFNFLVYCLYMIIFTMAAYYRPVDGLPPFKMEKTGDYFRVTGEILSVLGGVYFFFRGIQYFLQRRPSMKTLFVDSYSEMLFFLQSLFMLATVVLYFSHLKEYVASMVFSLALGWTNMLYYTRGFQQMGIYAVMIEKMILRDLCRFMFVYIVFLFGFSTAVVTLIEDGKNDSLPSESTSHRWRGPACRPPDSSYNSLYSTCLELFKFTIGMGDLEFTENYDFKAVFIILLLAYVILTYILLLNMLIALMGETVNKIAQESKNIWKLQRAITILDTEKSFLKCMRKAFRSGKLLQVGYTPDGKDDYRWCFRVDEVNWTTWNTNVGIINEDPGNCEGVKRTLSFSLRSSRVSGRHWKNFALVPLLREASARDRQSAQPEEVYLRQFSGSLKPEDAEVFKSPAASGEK

Ki, < 1000 nM:
COCCc1nc(Nc2ccc(C(C)(C)C)cc2)c2ccc(-c3ncccc3C(F)(F)F)cc2n1 [Compound 47, (4-tert-Butyl-phenyl)-[2-(2-methoxy-ethyl)-7-(3-trifluoromethyl-pyridin-2-yl)-quinazolin-4-yl]-amine]
COCCc1nc(Nc2ccc(C(C)C)cc2)c2ccc(-c3ncccc3C(F)(F)F)cc2n1 [Compound 48, (4-Isopropyl-phenyl)-[2-(2-methoxy-ethyl)-7-(3-trifluoromethyl-pyridin-2-yl)-quinazolin-4-yl]-amine]
COCCc1nc(Nc2ccc(C(C)(C)C)nc2)c2ccc(-c3ncccc3C(F)(F)F)cc2n1 [Compound 49, (6-tert-Butyl-pyridin-3-yl)-[2-(2-methoxy-ethyl)-7-(3-trifluoromethyl-pyridin-2-yl)-quinazolin-4-yl]-amine]
COCc1nc(Nc2ccc(C(C)(C)C)cc2)c2ncc(-c3ncccc3C(F)(F)F)cc2n1 [Compound 50, (4-tert-Butyl-phenyl)-[2-methoxymethyl-7-(3-trifluoromethyl-pyridin-2-yl)-pyrido[3,2-d]pyrimidin-4-yl]-amine]
COCc1nc(Nc2ccc(C(C)C)cc2)c2ncc(-c3ncccc3C(F)(F)F)cc2n1 [Compound 51, (4-Isopropyl-phenyl)-[2-methoxymethyl-7-(3-trifluoromethyl-pyridin-2-yl)-pyrido[3,2-d]pyrimidin-4-yl]-amine]
CCc1ccc(Nc2nc(COC)nc3cc(-c4ncccc4C(F)(F)F)cnc23)cc1 [Compound 52, (4-Ethyl-phenyl)-[2-methoxymethyl-7-(3-trifluoromethyl-pyridin-2-yl)-pyrido[3,2-d]pyrimidin-4-yl]-amine]
COCc1nc(Nc2ccc(C(F)(F)F)nc2)c2ncc(-c3ncccc3C(F)(F)F)cc2n1 [Compound 53, [2-Methoxymethyl-7-(3-trifluoromethyl-pyridin-2-yl)-pyrido[3,2-d]pyrimidin-4-yl]-(6-trifluoromethyl-pyridin-3-yl)-amine]
COCc1nc(Nc2ccc(C(C)=O)cc2)c2ncc(-c3ncccc3C(F)(F)F)cc2n1 [Compound 54, 1-{4-[2-Methoxymethyl-7-(3-trifluoromethyl-pyridin-2-yl)-pyrido[3,2-d]pyrimidin-4-ylamino]-phenyl}-ethanone]
COCc1nc(Nc2ccc(C#N)cc2)c2ncc(-c3ncccc3C(F)(F)F)cc2n1 [Compound 55, 4-[2-Methoxymethyl-7-(3-trifluoromethyl-pyridin-2-yl)-pyrido[3,2-d]pyrimidin-4-ylamino]-benzonitrile]
COCc1nc(Nc2ccc(C3CCCCC3)cc2)c2ncc(-c3ncccc3C(F)(F)F)cc2n1 [Compound 56, (4-Cyclohexyl-phenyl)-[2-methoxymethyl-7-(3-trifluoromethyl-pyridin-2-yl)-pyrido[3,2-d]pyrimidin-4-yl]-amine]
CCCC(=O)c1ccc(Nc2nc(COC)nc3cc(-c4ncccc4C(F)(F)F)cnc23)cc1 [Compound 57, 1-{4-[2-Methoxymethyl-7-(3-trifluoromethyl-pyridin-2-yl)-pyrido[3,2-d]pyrimidin-4-ylamino]-phenyl}-butan-1-one]
COCc1nc(Nc2ccc(C(C)(C)COC)cc2)c2ncc(-c3ncccc3C(F)(F)F)cc2n1 [Compound 58, [4-(2-Methoxy-1,1-dimethyl-ethyl)-phenyl]-[2-methoxymethyl-7-(3-trifluoromethyl-pyridin-2-yl)-pyrido[3,2-d]pyrimidin-4-yl]-amine]
COCc1nc(Nc2ccc(C(C)(C)C)cc2)c2ccc(-c3ncccc3Cl)nc2n1 [Compound 59, (4-tert-Butyl-phenyl)-[7-(3-chloro-pyridin-2-yl)-2-methoxymethyl-pyrido[2,3-d]pyrimidin-4-yl]-amine]
COCc1nc(Nc2ccc(C(C)C)cc2)c2ccc(-c3ncccc3Cl)nc2n1 [Compound 60, [7-(3-Chloro-pyridin-2-yl)-2-methoxymethyl-pyrido[2,3-d]pyrimidin-4-yl]-(4-isopropyl-phenyl)-amine]
COCc1nc(Nc2ccc(C(C)(C)COC)cc2)c2ccc(-c3ncccc3Cl)nc2n1 [Compound 61, [7-(3-Chloro-pyridin-2-yl)-2-methoxymethyl-pyrido[2,3-d]pyrimidin-4-yl]-[4-(2-methoxy-1,1-dimethyl-ethyl)-phenyl]-amine]
COCc1nc(Nc2ccc(C(C)(C)C#N)cc2)c2ccc(-c3ncccc3Cl)nc2n1 [Compound 62, 2-{4-[7-(3-Chloro-pyridin-2-yl)-2-methoxymethyl-pyrido[2,3-d]pyrimidin-4-ylamino]-phenyl}-2-methyl-propionitrile]
CCC(C)c1ccc(Nc2nc(COC)nc3nc(-c4ncccc4Cl)ccc23)cc1 (stereo not drawn) [Compound 63, (4-sec-Butyl-phenyl)-[7-(3-chloro-pyridin-2-yl)-2-methoxymethyl-pyrido[2,3-d]pyrimidin-4-yl]-amine]
COCc1nc(Nc2ccc(C(C)(C)C)cc2)c2ncc(-c3ncccc3Cl)cc2n1 [Compound 65, (4-tert-Butyl-phenyl)-[7-(3-chloro-pyridin-2-yl)-2-methoxymethyl-pyrido[3,2-d]pyrimidin-4-yl]-amine]
COCc1nc(Nc2ccc(C(C)C)cc2)c2ncc(-c3ncccc3Cl)cc2n1 [Compound 66, [7-(3-Chloro-pyridin-2-yl)-2-methoxymethyl-pyrido[3,2-d]pyrimidin-4-yl]-(4-isopropyl-phenyl)-amine]
COCc1nc(Nc2ccc(C(C)(C)C)nc2)c2ccc(-c3ncccc3Cl)cc2n1 [Compound 68, (6-tert-Butyl-pyridin-3-yl)-[7-(3-chloro-pyridin-2-yl)-2-methoxymethyl-quinazolin-4-yl]-amine]
COCc1nc(Nc2ccc(C(C)C)cc2)c2ccc(-c3ncccc3Cl)cc2n1 [Compound 69, [7-(3-Chloro-pyridin-2-yl)-2-methoxymethyl-quinazolin-4-yl]-(4-isopropyl-phenyl)-amine]
COCc1nc(Nc2ccc(C(F)(F)F)cc2)c2ccc(-c3ncccc3Cl)cc2n1 [Compound 70, [7-(3-Chloro-pyridin-2-yl)-2-methoxymethyl-quinazolin-4-yl]-(4-trifluoromethyl-phenyl)-amine]
COCc1nc(Nc2ccc(C(C)(C)C)cc2)c2ccc(-c3ncccc3Cl)cc2n1 [Compound 71, (4-tert-Butyl-phenyl)-[7-(3-chloro-pyridin-2-yl)-2-methoxymethyl-quinazolin-4-yl]-amine]
COCc1nc(Nc2ccc(C(C)C)cc2)c2ccc(-c3ncccc3C(F)(F)F)cc2n1 [Compound 72, (4-Isopropyl-phenyl)-[2-methoxymethyl-7-(3-trifluoromethyl-pyridin-2-yl)-quinazolin-4-yl]-amine]
COCc1nc(Nc2ccc(C(C)(C)C)cc2)c2ccc(-c3ncccc3C(F)(F)F)cc2n1 [Compound 73, (4-tert-Butyl-phenyl)-[2-methoxymethyl-7-(3-trifluoromethyl-pyridin-2-yl)-quinazolin-4-yl]-amine]
COCc1nc(Nc2ccc(C(C)(C)C)nc2)c2ccc(-c3ncccc3C(F)(F)F)cc2n1 [Compound 74, (6-tert-Butyl-pyridin-3-yl)-[2-methoxymethyl-7-(3-trifluoromethyl-pyridin-2-yl)-quinazolin-4-yl]-amine]
COCCOCc1nc(Nc2ccc(C(C)(C)C)cc2)c2ccc(-c3ncccc3Cl)nc2n1 [Compound 75, (4-tert-Butyl-phenyl)-[7-(3-chloro-pyridin-2-yl)-2-(2-methoxy-ethoxymethyl)-pyrido[2,3-d]pyrimidin-4-yl]-amine]
COCCOCc1nc(Nc2ccc(C(F)(F)F)cc2)c2ccc(-c3ncccc3Cl)nc2n1 [Compound 76, [7-(3-Chloro-pyridin-2-yl)-2-(2-methoxy-ethoxymethyl)-pyrido[2,3-d]pyrimidin-4-yl]-(4-trifluoromethyl-phenyl)-amine]
COCCOCc1nc(Nc2ccc(C(C)C)cc2)c2ccc(-c3ncccc3Cl)nc2n1 [Compound 77, [7-(3-Chloro-pyridin-2-yl)-2-(2-methoxy-ethoxymethyl)-pyrido[2,3-d]pyrimidin-4-yl]-(4-isopropyl-phenyl)-amine]
COCc1nc(Nc2ccc(C(C)C)cc2)c2ccc(-c3ncccc3C)cc2n1 [Compound 78, (4-Isopropyl-phenyl)-[2-methoxymethyl-7-(3-methyl-pyridin-2-yl)-quinazolin-4yl]-amine]
CCOCc1nc(Nc2ccc(C(C)(C)C)cc2)c2ccc(-c3ncccc3Cl)cc2n1 [Compound 79, (4-tert-Butyl-phenyl)-[7-(3-chloro-pyridin-2-yl)-2-ethoxymethyl-quinazolin-4-yl]-amine]
CCOCc1nc(Nc2ccc(C(C)C)cc2)c2ccc(-c3ncccc3Cl)cc2n1 [Compound 80, [7-(3-Chloro-pyridin-2-yl)-2-ethoxymethyl-quinazolin-4-yl]-(4-isopropyl-phenyl)-amine]
CCOCc1nc(Nc2ccc(C(F)(F)F)cc2)c2ccc(-c3ncccc3Cl)cc2n1 [Compound 81, [7-(3-Chloro-pyridin-2-yl)-2-ethoxymethyl-quinazolin-4-yl]-(4-trifluoromethyl-phenyl)-amine]
CCOCc1nc(Nc2ccc(C(C)(C)C)nc2)c2ccc(-c3ncccc3Cl)cc2n1 [Compound 82, (6-tert-Butyl-pyridin-3-yl)-[7-(3-chloro-pyridin-2-yl)-2-ethoxymethyl-quinazolin-4-yl]-amine]
COCCOCc1nc(Nc2ccc(C(C)(C)C#N)cc2)c2ccc(-c3ncccc3Cl)nc2n1 [Compound 83, 2-{4-[7-(3-Chloro-pyridin-2-yl)-2-(2-methoxy-ethoxymethyl)-pyrido[2,3-d]pyrimidin-4-ylamino]-phenyl}-2-methyl-propionitrile]
CCC(C)c1ccc(Nc2nc(COCCOC)nc3nc(-c4ncccc4Cl)ccc23)cc1 (stereo not drawn) [Compound 84, (4-sec-Butyl-phenyl)-[7-(3-chloro-pyridin-2-yl)-2-(2-methoxy-ethoxymethyl)-pyrido[2,3-d]pyrimidin-4-yl]-amine]
